We go through 2 molecules from paper PMC9822066 (Molecules, 2022).

One data set relates to human MAO B. The settings on record: Figure 1; read-out: hMAO B IC50; cited from earlier work.
In another data set the test system is human BuChE. The settings on record: Figure 1; read-out: hBuChE IC50; cited from earlier work.
The next data set addresses hH3R. The settings on record: Figure 1; read-out: hH3R Ki; cited from earlier work.
On the set-up of data set [1]: method as in PMID 32882609. The settings on record: Figure 1; cited from earlier work.
Another data set relates to human AChE. The settings on record: Figure 1; read-out: hAChEI IC50; cited from earlier work.
The next data set has as its target T1, eeAChE (Electrophorus electricus, UniProt O42275).
T1 construct: purchased Sigma–Aldrich (Steinheim, Germany)
The experiment in a line: Kinetic study of eeAChE inhibition (Lineweaver-Burk, Cornish-Bowden). In kind it is biochemical, electric eel. The settings on record: substrate acetylthiocholine.

The target of the next data set is T2, human H3R (Homo sapiens, UniProt Q9Y5N1).
T2 construct: expressed in transfected cells; host or cells: HEK293
Put plainly: [3H]Nα-methylhistamine radioligand binding assay in HEK293 cells stably expressing hH3R. The procedure: Final compounds were tested for their H3R affinity in a radioligand binding assay using [^3H]N^α-methylhistamine as radioligand in HEK293 cells stably expressing hH3R [25]. […] Affinity to hH3R stably expressed in HEK293 cells was evaluated in a radioligand binding assay as described previously. […] The radioactivity was counted in a MicroBeta Trilux counter (PerkinElmer). Data were fitted to a one-site curve-fitting equation with Prism 6 (GraphPad Software, San Diego, CA, USA) and Ki values were calculated from IC50 values (from at least three experiments performed in duplicates) according to the Cheng−Prusoff equation [52].

For data set [2] the following is noted: PAMPA, triplicate.
The subject of data set [3] is SH-SY5Y neuroblastoma cells. The experiment in a line: Neuroprotection against H2O2, LDH necrosis assay. It counts as cell-based. The settings on record: 10 µM, 300 µM H2O2, 24 h.
Data set [4] concerns SH-SY5Y neuroblastoma cells. Put plainly: Highest non-toxic concentration estimated before the neuroprotection assay. In kind it is cell-based. As for the experimental part:
[…]. however, it was statistically insignificant. […] Statistical significance was calculated against the number of necrotic cells in the H2O2-treated population. Additionally, the MTS test was performed in which the viability of cells was measured.

Data set [5] concerns the target BuChE from equine serum (eqBuChE) (Equus caballus, UniProt P81908). The experiment in a line: biochemical. The settings on record: mean ± SEM, triplicate independent experiments. In kind it is biochemical.
The next data set deals with eqBuChE (Equus caballus, UniProt P81908). Put plainly: Kinetic study of eqBuChE inhibition (Lineweaver-Burk, Cornish-Bowden). In kind it is biochemical, equine. As to conditions: substrate butyrylthiocholine.
Data set [6] relates to SH-SY5Y neuroblastoma cells. Put plainly: Neuroprotection against H2O2, MTS viability assay. In kind it is cell-based. The settings on record: 10 µM, 300 µM H2O2, 24 h.
The nature of data set [7]: Metabolic stability in mouse liver microsomes. In kind it is in vitro ADME. The procedure:
The metabolic stability of 6 was investigated first in silico with the use of MetaSite 6.0.1 software.
The in silico prediction of the most possible metabolic pathways was conducted by MetaSite 6.0.1. Software (Molecular Discovery Ltd., Borehamwood, UK). […] The compound was incubated for 120 min at 37 °C in TRIS-HCl buffer (pH 7.4) with the addition of NADPH Regeneration System (Promega, Madison, WI, USA). The LC/MS analysis and MS/MS fragmentations were used as a tool for the determination of the substrate remaining and the structures of the metabolites.
A general note: Microsomes from liver hold many membrane-bound enzymes, among them those of drug oxidation.

Data set [8] relates to mice. Put plainly: Formalin test. As to conditions: Mus musculus, ip. It counts as in vivo.
The subject of data set [9] is mice. Put plainly: Passive Avoidance Test, scopolamine-induced amnesia. In kind it is in vivo. Details: unit not given here. As to conditions: mean ± SEM.
A further data set can be described thus: in vitro. The settings on record: PAMPA. For orientation: The PAMPA barrier holds no transporters, so it reflects passive diffusion.
Data set [10] deals with T3, BuChE from human serum (hBuChE) (Homo sapiens, UniProt P06276).
T3 construct: Human BuChE from human serum was provided by Vivonics (Bedford, MA, USA); purchased Vivonics (Bedford, MA, USA); host or cells: human serum
The experiment in a line: Ellman's colorimetric assay, hBuChE inhibition. It counts as biochemical.

For data set [11], the target named is T4, human recombinant AChE (hAChE) (Homo sapiens, UniProt P22303).
T4 construct: purchased Sigma–Aldrich (Steinheim, Germany)
Put plainly: Ellman's colorimetric assay, hAChE inhibition. It counts as biochemical.

In the next data set the target is T5, hMAO B (Homo sapiens, UniProt P27338).
T5 sequence (P27338 1-520): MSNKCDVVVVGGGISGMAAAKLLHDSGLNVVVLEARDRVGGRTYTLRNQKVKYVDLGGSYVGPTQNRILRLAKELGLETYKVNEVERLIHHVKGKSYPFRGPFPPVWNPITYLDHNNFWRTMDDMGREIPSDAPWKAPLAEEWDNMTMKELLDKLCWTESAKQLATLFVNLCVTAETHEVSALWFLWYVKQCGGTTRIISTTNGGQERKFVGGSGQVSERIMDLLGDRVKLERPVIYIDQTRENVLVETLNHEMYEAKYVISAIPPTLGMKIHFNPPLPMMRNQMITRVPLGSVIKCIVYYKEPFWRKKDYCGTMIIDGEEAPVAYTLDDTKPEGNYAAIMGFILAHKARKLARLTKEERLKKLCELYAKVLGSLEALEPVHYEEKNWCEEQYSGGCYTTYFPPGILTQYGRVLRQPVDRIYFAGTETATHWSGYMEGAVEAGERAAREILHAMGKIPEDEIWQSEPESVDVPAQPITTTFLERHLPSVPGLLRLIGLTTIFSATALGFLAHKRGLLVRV
Put plainly: Fluorometric MAO assay, hMAO B inhibition. In kind it is biochemical. The settings on record: mean ± SEM of two independent experiments, read-out: hMAO B %Inh. at 1 µM.

A further data set relates to hepatoma HepG2 cells. The experiment in a line: Hepatotoxicity, MTS viability of HepG2 cells.
Data set [12] addresses T6, electric eel AChE (eeAChE) (Electrophorus electricus, UniProt O42275).
T6 construct: purchased Sigma–Aldrich (Steinheim, Germany)
The experiment in a line: biochemical. The settings on record: mean ± SEM, triplicate independent experiments; read-out: eeAChE IC50.

“And” between values parts separate entries of the source, which are not always exact repeats. Identical values can stand only once. Like-named read-outs stand apart in the source and are kept apart here.

T3 sequence (P06276 29-602): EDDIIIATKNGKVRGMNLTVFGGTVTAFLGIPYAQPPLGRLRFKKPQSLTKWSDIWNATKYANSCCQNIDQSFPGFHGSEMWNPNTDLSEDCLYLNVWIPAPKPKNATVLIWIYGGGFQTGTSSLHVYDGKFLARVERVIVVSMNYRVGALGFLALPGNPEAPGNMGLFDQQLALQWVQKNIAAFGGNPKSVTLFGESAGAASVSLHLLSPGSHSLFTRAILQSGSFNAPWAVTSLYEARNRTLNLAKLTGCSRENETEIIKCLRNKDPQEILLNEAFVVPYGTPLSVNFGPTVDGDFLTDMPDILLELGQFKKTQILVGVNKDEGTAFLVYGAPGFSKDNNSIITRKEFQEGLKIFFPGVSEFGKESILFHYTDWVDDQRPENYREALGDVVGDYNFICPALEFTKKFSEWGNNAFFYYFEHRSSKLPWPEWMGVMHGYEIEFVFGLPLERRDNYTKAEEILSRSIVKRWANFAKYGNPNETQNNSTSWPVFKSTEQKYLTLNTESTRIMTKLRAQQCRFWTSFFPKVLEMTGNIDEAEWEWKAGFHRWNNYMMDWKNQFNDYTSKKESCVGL
BuChE from equine serum (eqBuChE), sequence (P81908 whole entry): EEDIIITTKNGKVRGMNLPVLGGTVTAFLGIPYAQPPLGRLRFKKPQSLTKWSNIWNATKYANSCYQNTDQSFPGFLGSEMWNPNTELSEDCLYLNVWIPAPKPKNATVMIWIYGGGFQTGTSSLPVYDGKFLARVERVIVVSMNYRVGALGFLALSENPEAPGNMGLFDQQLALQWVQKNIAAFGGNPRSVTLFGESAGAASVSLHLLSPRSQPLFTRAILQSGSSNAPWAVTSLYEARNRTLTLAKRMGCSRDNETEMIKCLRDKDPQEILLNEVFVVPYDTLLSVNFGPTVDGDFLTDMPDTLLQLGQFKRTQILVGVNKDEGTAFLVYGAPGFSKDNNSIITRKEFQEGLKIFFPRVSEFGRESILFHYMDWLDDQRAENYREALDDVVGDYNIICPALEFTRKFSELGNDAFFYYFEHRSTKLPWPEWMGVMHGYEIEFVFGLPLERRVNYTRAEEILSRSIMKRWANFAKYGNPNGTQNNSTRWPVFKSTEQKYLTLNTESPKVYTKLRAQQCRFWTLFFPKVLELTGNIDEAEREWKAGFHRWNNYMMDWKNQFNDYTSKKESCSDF
T6 sequence (O42275 24-633): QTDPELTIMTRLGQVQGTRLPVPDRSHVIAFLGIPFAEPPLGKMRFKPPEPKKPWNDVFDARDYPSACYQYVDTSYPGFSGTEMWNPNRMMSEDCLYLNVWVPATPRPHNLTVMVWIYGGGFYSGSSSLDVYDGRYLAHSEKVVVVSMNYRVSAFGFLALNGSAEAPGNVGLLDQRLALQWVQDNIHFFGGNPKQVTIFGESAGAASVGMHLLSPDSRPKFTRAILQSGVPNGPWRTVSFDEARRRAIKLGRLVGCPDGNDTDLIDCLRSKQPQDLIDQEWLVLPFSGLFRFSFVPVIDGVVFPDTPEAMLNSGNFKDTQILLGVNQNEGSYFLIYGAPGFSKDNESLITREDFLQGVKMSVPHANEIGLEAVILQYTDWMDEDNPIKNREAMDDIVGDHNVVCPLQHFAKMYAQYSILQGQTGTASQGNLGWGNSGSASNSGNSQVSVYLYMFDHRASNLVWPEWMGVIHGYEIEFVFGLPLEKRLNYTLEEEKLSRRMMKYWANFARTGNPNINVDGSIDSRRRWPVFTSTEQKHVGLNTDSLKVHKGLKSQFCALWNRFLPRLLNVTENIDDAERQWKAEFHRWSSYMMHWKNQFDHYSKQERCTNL
T4 sequence (P22303 32-614): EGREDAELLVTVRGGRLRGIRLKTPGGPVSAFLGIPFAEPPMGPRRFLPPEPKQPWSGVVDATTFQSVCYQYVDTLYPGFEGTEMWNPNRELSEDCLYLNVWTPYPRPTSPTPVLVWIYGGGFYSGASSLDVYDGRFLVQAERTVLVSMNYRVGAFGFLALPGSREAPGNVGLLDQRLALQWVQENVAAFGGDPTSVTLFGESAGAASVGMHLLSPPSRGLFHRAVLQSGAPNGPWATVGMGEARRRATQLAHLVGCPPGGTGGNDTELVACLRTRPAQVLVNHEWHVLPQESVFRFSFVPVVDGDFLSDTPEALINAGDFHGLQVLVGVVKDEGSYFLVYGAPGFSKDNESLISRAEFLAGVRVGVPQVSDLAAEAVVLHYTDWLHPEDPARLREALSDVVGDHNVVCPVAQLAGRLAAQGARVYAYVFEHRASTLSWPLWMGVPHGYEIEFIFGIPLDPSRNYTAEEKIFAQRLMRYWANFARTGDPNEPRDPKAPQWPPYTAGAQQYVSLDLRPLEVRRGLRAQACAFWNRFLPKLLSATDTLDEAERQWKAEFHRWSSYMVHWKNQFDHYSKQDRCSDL
eqBuChE, sequence (P81908 whole entry): as the sequence (P81908 whole entry) above
T1 sequence (O42275 24-633): as the sequence (O42275 24-633) above
T2 sequence (Q9Y5N1 whole entry): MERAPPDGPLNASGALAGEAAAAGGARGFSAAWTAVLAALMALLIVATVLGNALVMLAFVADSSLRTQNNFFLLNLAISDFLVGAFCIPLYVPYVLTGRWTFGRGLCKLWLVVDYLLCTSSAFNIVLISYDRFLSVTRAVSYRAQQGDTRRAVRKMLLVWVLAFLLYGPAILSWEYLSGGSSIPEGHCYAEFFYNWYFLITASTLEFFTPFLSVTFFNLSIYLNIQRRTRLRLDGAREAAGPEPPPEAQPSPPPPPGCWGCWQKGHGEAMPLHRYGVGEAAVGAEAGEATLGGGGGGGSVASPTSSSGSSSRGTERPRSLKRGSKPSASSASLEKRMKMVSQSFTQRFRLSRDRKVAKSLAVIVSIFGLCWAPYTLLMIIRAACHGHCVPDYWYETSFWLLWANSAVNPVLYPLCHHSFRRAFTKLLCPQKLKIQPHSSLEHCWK
Protocol for hepatoma HepG2 cells: Doxorubicin (DX) at the concentration of 1 μM was used as the reference cytostatic drug.
A multifunctional reader EnSpire (PerkinElmer, Waltham, MA, USA) was used to measure the absorbance.

`O=c1c2ccccc2oc2ccc(OCCCCCN3CCCCCC3)cc12` [Compound I]: the IC50 – broadly, the concentration that gives 50% inhibition – in the data set with human MAO B was 780 nM; with human BuChE, 1280 nM; with human AChE, 390 nM. The Ki (as a rule, a dissociation constant, usually derived from enzyme kinetics or from competition with a known ligand) on hH3R was 170 nM. The in vivo activity entry in data set [1] is given as “significant memory-enhancing effect”.
Take `O=C(O)C(=O)O.O=C(c1ccc(F)cc1)c1ccc(OCCCCCN2CCCCC2)cc1` [Compound 6, (4-Fluorophenyl) (4-((5-(piperidin-1-yl)pentyl)oxy)phenyl)methanone hydrogen oxalate]: the “mechanism of eeAChE inhibition” value at eeAChE is “non-competitive”. For the same molecule, at human H3R, the Ki is 8 nM. Besides, the “Pe ± SD” value in [2] is 6.3 ± 0.6 10^−6 cm/s. The “effect on necrosis (LDH test)” value in data set [3] is on record as “slight inhibition of the necrosis process”. Further, the highest non-toxic concentration in data set [4] was 10 µM. The IC50 in data set [5] is 170 nM and 172 nM; in data set [10], 1160 nM; in data set [11] it was 9590 nM; in data set [12], 2310 nM. For the same molecule, at eqBuChE, the “mechanism of eqBuChE inhibition” value is on record as “mix type”. Also, the “effect on viability (MTS test)” value in data set [6] is on record as “no increase in the viability”. The “% biotransformed” value in [7] (MLMs, 120 min, UPLC) is “around 34%”. For the same molecule, the “% Remaining” value in data set [7] (MLMs, 120 min incubation) is on record as 65.95%. Moreover, in data set [7] (MLMs, metabolites M1, M2, M3), the “Metabolic Pathway” value is listed as “reduction of carbonyl group hydroxylation reduction of carbonyl group, hydroxylation”. Besides, the “metabolic stability (in words)” value in [7] (mouse liver microsomes) was “moderate metabolic stability”. Besides, the share remaining – broadly, what is left of the initial amount, in per cent – at 2 h in [7] (mouse, mouse liver microsomes, pH 7.4, MLMs, 120 min incubation) is 66%. Moreover, the ED50 (commonly the dose at which the effect has come halfway, by size or by number of responders) was determined as 20.9 mg/kg in the data set on mice [8] (0–5 min after formalin, read-out: ED50 phase I (acute pain)) and 17.5 mg/kg with mice [8] (15–30 min after formalin, read-out: ED50 phase II (inflammatory pain)). The “latency time in the retention trial” value with mice [9] (15 mg/kg i.p. in scopolamine-treated mice) is 47.07 ± 17.56; in the data set on mice [9] (15 mg/kg i.p., without scopolamine), 151.89 ± 5.46; with mice [9] (30 mg/kg i.p. in scopolamine-treated mice) it was 51.56 ± 21.17. In “in vitro”, the Papp (commonly a coefficient for how fast a substance crosses the barrier) came out at 6.3 ×10⁻⁶ cm/s. Further, the inhibition at 1 µM on hMAO B is 25%. Further, the “concentration decreasing HepG2 cell viability” value in the data set with hepatoma HepG2 cells (72 h incubation, MTS) is not below 10 µM. In addition, the “concentration range with lack of hepatotoxicity effect” value in the data set with hepatoma HepG2 cells (HepG2 cells) is 0.1 to 1 µM.
